Measured values taken from publication PMC6328172, “5-HT2 receptor binding, functional activity and selectivity in N-benzyltryptamines” (PLoS ONE, 2019).
Values joined by “and” are separate entries in the source; they are usually repeats but may differ in a detail not shown here. Equal values may be shown once. Read-outs that look alike come from different tables or passages of the source.

How the values were obtained:
5-HT2A receptor [1] = molecular target: 5-HT2A receptor; design: method as in PMID 27216487; details: reported affinity; cited from earlier work
5-HT2C receptor [2] = molecular target: 5-HT2C receptor; design: method as in PMID 27216487; details: reported affinity; cited from earlier work
head twitch response [3] = details: cited from earlier work
head twitch response [4] = assay: Mouse head twitch response (HTR) assay (literature); assay type: in vivo; details: from the HTR ED50 values
5-HT2A receptor [5] = details: described by Nichols; cited from earlier work
5-HT2C receptor [6] = details: cited from earlier work
5-HT2A receptors = details: cited from earlier work
human 5-HT2A receptor [7] = molecular target: T1, human 5-HT2A receptor (Homo sapiens, UniProt P28223); assay: Competition binding to the human 5-HT2A receptor ([3H]ketanserin, CHO-5-HT2A membranes)
T1 construct: expressed in transfected cells; host or cells: CHO (CHO-5-HT2A cell line)
T1 sequence (P28223 whole entry): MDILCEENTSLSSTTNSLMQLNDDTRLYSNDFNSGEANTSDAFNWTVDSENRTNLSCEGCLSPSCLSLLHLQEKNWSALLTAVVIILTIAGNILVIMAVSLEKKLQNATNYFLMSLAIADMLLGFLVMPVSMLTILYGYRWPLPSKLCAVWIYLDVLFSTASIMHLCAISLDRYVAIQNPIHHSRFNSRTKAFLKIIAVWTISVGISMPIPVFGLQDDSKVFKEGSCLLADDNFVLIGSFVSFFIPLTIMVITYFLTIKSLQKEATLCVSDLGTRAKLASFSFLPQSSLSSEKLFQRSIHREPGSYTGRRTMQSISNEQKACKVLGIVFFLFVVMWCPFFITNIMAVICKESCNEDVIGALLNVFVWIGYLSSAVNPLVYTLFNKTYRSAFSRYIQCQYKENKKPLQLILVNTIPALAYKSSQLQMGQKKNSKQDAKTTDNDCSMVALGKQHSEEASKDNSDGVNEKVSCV

5-HT2A receptor [8] = details: described by Nichols; cited from earlier work; remark: listed apart in the source
human 5-HT2C receptor [9] = molecular target: T2, human 5-HT2C receptor (Homo sapiens, UniProt P28335); assay: Ca2+ mobilization in HeLa h5-HT2C cells; assay type: cell-based
T2 construct: expressed in transfected cells; host or cells: HeLa (HeLa-5-HT2C cell line)
T2 sequence (P28335 33-458): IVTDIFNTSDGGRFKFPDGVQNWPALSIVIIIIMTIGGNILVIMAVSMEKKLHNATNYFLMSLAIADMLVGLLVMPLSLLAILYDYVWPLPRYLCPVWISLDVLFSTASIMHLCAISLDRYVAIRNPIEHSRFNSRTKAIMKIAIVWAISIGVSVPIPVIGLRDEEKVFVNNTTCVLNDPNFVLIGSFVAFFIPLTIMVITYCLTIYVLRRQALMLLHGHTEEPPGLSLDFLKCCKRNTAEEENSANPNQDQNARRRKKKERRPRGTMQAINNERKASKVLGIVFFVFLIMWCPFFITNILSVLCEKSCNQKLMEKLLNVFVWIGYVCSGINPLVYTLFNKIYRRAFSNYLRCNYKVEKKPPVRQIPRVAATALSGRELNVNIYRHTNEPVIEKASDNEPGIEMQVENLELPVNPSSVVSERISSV

human 5-HT2C receptor [10] = molecular target: T2, human 5-HT2C receptor; assay: Competition binding to the human 5-HT2C receptor ([3H]mesulergine, HeLa-5-HT2C membranes)
human 5-HT2A receptor [11] = molecular target: T1, human 5-HT2A receptor; assay: Ca2+ mobilization in CHO h5-HT2A cells; assay type: cell-based
human 5-HT2B receptor = human 5-HT2B receptor (Homo sapiens, UniProt P41595); assay: Competition binding to the human 5-HT2B receptor ([3H]LSD, CHO-5-HT2B membranes)
human 5-HT2B receptor, sequence (P41595 whole entry): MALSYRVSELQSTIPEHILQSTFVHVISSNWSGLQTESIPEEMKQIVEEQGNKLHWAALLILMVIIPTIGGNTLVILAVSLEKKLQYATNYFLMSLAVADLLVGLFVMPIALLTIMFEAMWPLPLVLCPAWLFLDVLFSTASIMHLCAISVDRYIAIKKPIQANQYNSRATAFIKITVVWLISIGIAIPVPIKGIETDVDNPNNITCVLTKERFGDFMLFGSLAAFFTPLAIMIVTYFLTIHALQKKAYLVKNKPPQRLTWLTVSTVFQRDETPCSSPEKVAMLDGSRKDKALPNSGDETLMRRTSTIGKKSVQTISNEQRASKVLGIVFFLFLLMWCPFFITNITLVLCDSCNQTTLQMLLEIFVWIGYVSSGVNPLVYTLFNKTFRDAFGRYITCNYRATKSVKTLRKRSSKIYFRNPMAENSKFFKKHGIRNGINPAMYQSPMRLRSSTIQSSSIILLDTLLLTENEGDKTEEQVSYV

[12] = relative efficacy, % of response to 5-HT

Question: Which Ki (5-HT2A receptor [1]) does the source give for `COc1ccc2[nH]cc(CCN(C)C(C)C)c2c1` [N-isopropyl-N-methyl-5-methoxytryptamine] here?
Answer: The Ki was 165 nM.

Question: What about the Ki (5-HT2C receptor [2]) of the same molecule?
Answer: Its Ki is 1300 nM.

Question: Which “ED50 in the mouse head twitch response (HTR) assay” value (head twitch response [3]) does the source give for `COc1cc(CCNCc2ccccc2OC)c(OC)cc1I` [Compound 25I-NBOMe, 4-iodo-2,5-dimethoxy-N-(2-methoxybenzyl)phenethylamine, reference compound] here?
Answer: The value was 0.078 mg/kg.

Question: What about the “fold higher in vivo potency (HTR) than compound 38” value (head twitch response [4]) of the same molecule?
Answer: Its value is 40 fold.

Question: And the Ki (5-HT2A receptor [5])?
Answer: Its Ki is 0.52 nM.

Question: What does the source list for `CC(C)N(CCc1c[nH]c2ccccc12)C(C)C` [N,N-diisopropyltryptamine]?
Answer: Ki (5-HT2A receptor [1]): 1200 nM; Ki (5-HT2C receptor [2]): 6500 nM

Question: With `C[C@H]1CNCCc2ccc(Cl)cc21` [lorcaserin, 1(R)-8-chloro-1-methyl.2,3,4,5-tetrahydro-(1H)-3-benzazepine] as the molecule, how does the “agonist character at 5-HT2C (in words)” value (5-HT2C receptor [6]) read?
Answer: Its value is “full 5-HT2C agonist”.

Question: What about the “pEC50(2A)” value (5-HT2A receptors; Fig 6) of the same molecule?
Answer: The value was 6.8.

Question: And the “efficacy at 5-HT2A receptors” value (5-HT2A receptors; partial agonist)?
Answer: Its value is “about 70%”.

Question: What does the source list for `CN(C)CCc1c[nH]c2ccccc12` [N,N-dimethyltryptamine]?
Answer: Ki (5-HT2A receptor [1]): 237 nM; Ki (5-HT2C receptor [2]): 424 nM

Question: With `COc1ccc2[nH]cc(CCNCc3ccccc3OC)c2c1` [Compound 38, N-(2-Methoxybenzyl)-[2-(5-methoxy-1H-indol-3-il)ethyl]amine] as the molecule, how does the “Selectivity 5-HT2A/2C (binding)” value (human 5-HT2A receptor [7]; from Ki values, Table 1) read?
Answer: The value was 1.55.

Question: What about the Ki (human 5-HT2A receptor [7]; human receptor, [3H]ketanserin displacement, no unit in the table, nM, read-out: 5-HT2A Ki (in parentheses) (converted)) of the same molecule?
Answer: The Ki was 44.7 nM.

Question: And the “ED50 in the mouse head twitch response (HTR) assay” value (head twitch response [3])?
Answer: Its value is 3.15 mg/kg.

Question: And the “5-HT2A Emax” value (5-HT2A receptor [8])?
Answer: The value was 81%.

Question: And the EC50 (5-HT2A receptor [8])?
Answer: Its EC50 is 1.9 nM.

Question: What about the EC50 (human 5-HT2C receptor [9]; Ca2+ mobilization, no unit in the table, nM, read-out: 5-HT2C EC50 (in parentheses) (converted)) of the same molecule?
Answer: Its EC50 is 3.8 nM.

Question: And the Emax (human 5-HT2C receptor [9]; HeLa, read-out: 5-HT2C % Emax)?
Answer: Its Emax is 88.7 ± 4.22%.

Question: What about the “Selectivity 5-HT2C/2A (functional, in parentheses)” value (human 5-HT2C receptor [9]; from EC50 values, Table 2) of the same molecule?
Answer: Its value is 0.53.

Question: What about the “Selectivity 5-HT2C/2A (binding, in parentheses)” value (human 5-HT2C receptor [10]; from Ki values, Table 1) of the same molecule?
Answer: Its value is 0.65.

Question: And the Ki (human 5-HT2C receptor [10]; human receptor, [3H]mesulergine displacement, no unit in the table, nM, read-out: 5-HT2C Ki (in parentheses) (converted))?
Answer: Its Ki is 69.2 nM.

Question: And the Ki (5-HT2A receptor [5])?
Answer: Its Ki is 16.6 nM.

Question: And the “5-HT2A pEC50” value (human 5-HT2A receptor [11]; Ca2+ mobilization, pEC50 ± SEM)?
Answer: The value was 8.70 ± 0.20.

Question: And the EC50 (human 5-HT2A receptor [11]; Ca2+ mobilization, no unit in the table, nM, read-out: 5-HT2A EC50 (in parentheses) (converted))?
Answer: The EC50 was 2 nM and 1.99 nM.

Question: What about the “Selectivity 5-HT2A/2C (functional)” value (human 5-HT2A receptor [11]; from EC50 values, Table 2) of the same molecule?
Answer: Its value is 1.91.

Question: And the “5-HT2A % Emax” value (human 5-HT2A receptor [11]; [12])?
Answer: Its value is 83.66 ± 3.42%.

Question: And the Emax (human 5-HT2A receptor [11]; [12])?
Answer: Its Emax is 84%.

Question: And the Ki (human 5-HT2B receptor)?
Answer: The Ki was 15.9 nM.
